Laboratory results reported in PMC8632988, “Inhibition of SYK and cSrc kinases can protect bone and cartilage in preclinical models of osteoarthritis and rheumatoid arthritis” (Scientific Reports, 2021).
Values joined by “and” are separate entries in the source; they are usually repeats but may differ in a detail not shown here. Equal entries are not always repeated.

Tests used:
Experiment in all cases: Kinase selectivity profile assay
Assay type in all cases: biochemical
[1] = molecular target: T1, BRSK2 (Homo sapiens, UniProt Q8IWQ3); details: 500 nM; relative to DMSO; read-out: Residual enzymatic activity
T1 construct: purchased Reaction Biology Corporation
Procedure: (§1) The activity of MT-SYK-03 against cSrc kinase and selectivity profile towards other 341 kinases was determined at Reaction Biology Corporation (Malvern, PA, USA) using the standard kinase assay protocol. […]; unbound phosphate was removed by extensive washing of filters in phosphoric acid. Kinase activity data was expressed as the percent remaining kinase activity in test samples compared to vehicle (dimethyl sulfoxide) reactions based on the radioactivity of reaction products (see Table S2). Experiment was replicated twice.

[2] = molecular target: T2, CDK16/cyclin Y (Homo sapiens, UniProt Q00536); details: 500 nM; relative to DMSO; read-out: Residual enzymatic activity
T2 construct: purchased Reaction Biology Corporation
Procedure: as §1

[3] = molecular target: T3, CDK5/p25 (Homo sapiens, UniProt Q00535); details: 500 nM; relative to DMSO; read-out: Residual enzymatic activity
T3 construct: purchased Reaction Biology Corporation
Procedure: as §1

[4] = molecular target: T4, DCAMKL2 (Homo sapiens, UniProt Q8N568); details: 500 nM; relative to DMSO; read-out: Residual enzymatic activity
T4 construct: purchased Reaction Biology Corporation
Procedure: as §1

[5] = molecular target: T5, EPHA6 (Homo sapiens, UniProt Q9UF33); details: 500 nM, relative to DMSO; for remaining activity at 0.5 µM: read-out: Residual enzymatic activity
T5 construct: purchased Reaction Biology Corporation
T5 sequence (Q9UF33 23-1036): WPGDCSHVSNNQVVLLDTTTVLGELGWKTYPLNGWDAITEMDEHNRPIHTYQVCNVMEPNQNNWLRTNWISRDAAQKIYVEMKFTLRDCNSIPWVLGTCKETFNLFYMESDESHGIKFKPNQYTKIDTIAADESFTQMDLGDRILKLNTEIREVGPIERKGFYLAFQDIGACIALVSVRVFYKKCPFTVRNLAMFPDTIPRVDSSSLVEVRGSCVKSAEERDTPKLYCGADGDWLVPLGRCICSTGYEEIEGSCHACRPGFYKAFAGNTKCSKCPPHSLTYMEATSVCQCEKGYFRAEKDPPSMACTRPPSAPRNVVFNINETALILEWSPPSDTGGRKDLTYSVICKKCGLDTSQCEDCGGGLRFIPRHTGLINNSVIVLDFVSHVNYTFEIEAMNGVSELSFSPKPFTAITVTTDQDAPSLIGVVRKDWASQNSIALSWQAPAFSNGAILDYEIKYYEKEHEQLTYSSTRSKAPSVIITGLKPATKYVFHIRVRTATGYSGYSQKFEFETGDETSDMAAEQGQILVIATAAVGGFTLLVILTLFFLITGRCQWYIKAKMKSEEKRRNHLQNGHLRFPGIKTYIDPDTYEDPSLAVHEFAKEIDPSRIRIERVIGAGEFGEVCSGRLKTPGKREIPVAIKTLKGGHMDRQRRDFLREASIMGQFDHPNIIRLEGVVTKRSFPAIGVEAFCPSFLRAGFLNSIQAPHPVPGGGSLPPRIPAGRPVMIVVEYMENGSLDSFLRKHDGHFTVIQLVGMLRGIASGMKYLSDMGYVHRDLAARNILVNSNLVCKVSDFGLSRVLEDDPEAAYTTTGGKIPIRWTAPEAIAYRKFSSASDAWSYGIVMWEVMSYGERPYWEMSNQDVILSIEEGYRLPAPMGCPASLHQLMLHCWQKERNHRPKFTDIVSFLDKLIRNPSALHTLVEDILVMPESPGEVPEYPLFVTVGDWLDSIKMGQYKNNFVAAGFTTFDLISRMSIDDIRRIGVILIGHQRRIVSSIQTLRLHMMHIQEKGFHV
Procedure: as §1

[6] = molecular target: T6, FGFR4 (Homo sapiens, UniProt P22455); details: 500 nM, relative to DMSO
T6 construct: purchased Reaction Biology Corporation
Procedure: as §1

[7] = molecular target: T7, FLT3 (Homo sapiens, UniProt P36888); details: for remaining activity at 0.5 µM: 500 nM, relative to DMSO, read-out: Residual enzymatic activity
T7 construct: purchased Reaction Biology Corporation (assay service)
T7 sequence (P36888 27-993): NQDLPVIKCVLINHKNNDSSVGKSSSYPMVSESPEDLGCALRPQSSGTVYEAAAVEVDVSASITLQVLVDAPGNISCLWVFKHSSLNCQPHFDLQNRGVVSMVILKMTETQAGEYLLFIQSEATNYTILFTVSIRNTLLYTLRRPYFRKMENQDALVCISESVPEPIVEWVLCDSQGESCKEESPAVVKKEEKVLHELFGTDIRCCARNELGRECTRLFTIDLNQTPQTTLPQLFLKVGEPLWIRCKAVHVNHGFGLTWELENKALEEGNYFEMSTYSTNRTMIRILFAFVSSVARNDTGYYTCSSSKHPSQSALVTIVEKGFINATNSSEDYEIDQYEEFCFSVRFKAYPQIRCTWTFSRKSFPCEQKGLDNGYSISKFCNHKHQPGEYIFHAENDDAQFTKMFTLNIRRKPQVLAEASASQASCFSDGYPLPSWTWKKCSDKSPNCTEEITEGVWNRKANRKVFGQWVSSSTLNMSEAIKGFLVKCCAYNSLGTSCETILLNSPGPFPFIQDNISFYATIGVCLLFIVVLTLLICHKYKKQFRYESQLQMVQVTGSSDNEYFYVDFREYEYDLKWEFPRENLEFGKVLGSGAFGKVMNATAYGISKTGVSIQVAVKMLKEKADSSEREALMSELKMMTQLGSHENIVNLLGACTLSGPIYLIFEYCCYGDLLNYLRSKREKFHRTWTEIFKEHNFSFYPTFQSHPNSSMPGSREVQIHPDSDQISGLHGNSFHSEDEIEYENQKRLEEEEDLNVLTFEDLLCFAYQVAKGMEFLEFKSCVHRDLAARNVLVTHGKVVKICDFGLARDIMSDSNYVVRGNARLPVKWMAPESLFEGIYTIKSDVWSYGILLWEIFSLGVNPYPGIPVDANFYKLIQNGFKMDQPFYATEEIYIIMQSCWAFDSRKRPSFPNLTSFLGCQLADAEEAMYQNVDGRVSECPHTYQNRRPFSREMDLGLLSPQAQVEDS
Procedure: as §1

[8] = molecular target: T8, IKKe/IKBKE (Homo sapiens, UniProt Q14164); details: 500 nM; relative to DMSO; read-out: Residual enzymatic activity
T8 construct: purchased Reaction Biology Corporation
Procedure: as §1

[9] = molecular target: T9, PIM1 (Homo sapiens, UniProt P11309); details: 500 nM; relative to DMSO; read-out: Residual enzymatic activity
T9 construct: purchased Reaction Biology Corporation
Procedure: as §1

[10] = molecular target: T10, ROCK1 (Homo sapiens, UniProt Q13464); details: 500 nM; relative to DMSO; read-out: Residual enzymatic activity
T10 construct: purchased Reaction Biology Corporation
Procedure: as §1

[11] = molecular target: T11, RSK2 (Homo sapiens, UniProt P51812); details: 500 nM; relative to DMSO; read-out: Residual enzymatic activity
T11 construct: purchased Reaction Biology Corporation
Procedure: as §1

[12] = molecular target: T12, SIK1 (Homo sapiens, UniProt P57059); details: for remaining activity at 0.5 µM: 500 nM, relative to DMSO, read-out: Residual enzymatic activity
T12 construct: purchased Reaction Biology Corporation (Malvern, PA, USA)
Procedure: as §1

[13] = molecular target: T13, SRPK1 (Homo sapiens, UniProt Q96SB4); details: 500 nM; relative to DMSO; read-out: Residual enzymatic activity
T13 construct: purchased Reaction Biology Corporation
Procedure: as §1

[14] = molecular target: T14, TBK1 (Homo sapiens, UniProt Q9UHD2); details: 500 nM; relative to DMSO; read-out: Residual enzymatic activity
T14 construct: purchased Reaction Biology Corporation
Procedure: as §1

[15] = 10-dose mode, threefold serial dilution from 10 μM

T12 sequence (P57059 whole entry): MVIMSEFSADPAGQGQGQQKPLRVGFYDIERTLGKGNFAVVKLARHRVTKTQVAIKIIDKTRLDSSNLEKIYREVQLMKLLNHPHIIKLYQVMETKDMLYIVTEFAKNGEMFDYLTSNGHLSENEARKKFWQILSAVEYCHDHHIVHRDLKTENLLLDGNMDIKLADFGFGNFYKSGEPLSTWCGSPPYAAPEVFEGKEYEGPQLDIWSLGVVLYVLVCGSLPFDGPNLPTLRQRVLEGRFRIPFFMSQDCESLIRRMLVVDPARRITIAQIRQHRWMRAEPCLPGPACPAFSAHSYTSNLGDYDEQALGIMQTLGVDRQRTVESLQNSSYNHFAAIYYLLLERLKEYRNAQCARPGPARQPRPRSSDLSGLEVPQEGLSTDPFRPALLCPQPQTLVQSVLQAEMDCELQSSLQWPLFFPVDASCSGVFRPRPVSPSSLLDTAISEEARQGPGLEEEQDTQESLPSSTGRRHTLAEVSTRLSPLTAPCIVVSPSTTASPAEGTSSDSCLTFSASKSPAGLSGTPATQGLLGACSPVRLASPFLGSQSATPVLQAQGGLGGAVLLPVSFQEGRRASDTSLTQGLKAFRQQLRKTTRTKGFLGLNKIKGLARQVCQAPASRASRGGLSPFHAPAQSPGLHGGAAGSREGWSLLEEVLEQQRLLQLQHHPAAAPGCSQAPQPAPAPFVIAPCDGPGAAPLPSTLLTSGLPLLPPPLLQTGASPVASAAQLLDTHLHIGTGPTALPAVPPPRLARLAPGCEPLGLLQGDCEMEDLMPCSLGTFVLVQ
T8 sequence (Q14164 whole entry): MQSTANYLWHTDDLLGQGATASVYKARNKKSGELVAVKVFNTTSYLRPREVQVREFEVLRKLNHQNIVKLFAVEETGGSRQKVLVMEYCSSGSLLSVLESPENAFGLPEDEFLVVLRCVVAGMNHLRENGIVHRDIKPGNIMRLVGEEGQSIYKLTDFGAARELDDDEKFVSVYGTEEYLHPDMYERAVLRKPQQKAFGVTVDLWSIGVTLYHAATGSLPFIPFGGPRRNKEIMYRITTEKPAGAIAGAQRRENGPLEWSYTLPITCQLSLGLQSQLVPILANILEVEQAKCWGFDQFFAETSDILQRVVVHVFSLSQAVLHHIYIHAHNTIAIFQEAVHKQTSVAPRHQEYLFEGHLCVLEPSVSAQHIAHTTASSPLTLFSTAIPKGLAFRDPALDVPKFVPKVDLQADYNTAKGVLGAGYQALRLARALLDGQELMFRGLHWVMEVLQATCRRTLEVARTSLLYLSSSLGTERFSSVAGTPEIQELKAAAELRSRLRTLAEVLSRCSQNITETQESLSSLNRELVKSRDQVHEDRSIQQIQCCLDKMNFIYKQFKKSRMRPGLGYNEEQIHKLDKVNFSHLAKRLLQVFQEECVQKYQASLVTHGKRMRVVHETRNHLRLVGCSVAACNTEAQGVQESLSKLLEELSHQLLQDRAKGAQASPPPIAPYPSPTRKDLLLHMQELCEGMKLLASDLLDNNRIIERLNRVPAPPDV
T1 sequence (Q8IWQ3 whole entry): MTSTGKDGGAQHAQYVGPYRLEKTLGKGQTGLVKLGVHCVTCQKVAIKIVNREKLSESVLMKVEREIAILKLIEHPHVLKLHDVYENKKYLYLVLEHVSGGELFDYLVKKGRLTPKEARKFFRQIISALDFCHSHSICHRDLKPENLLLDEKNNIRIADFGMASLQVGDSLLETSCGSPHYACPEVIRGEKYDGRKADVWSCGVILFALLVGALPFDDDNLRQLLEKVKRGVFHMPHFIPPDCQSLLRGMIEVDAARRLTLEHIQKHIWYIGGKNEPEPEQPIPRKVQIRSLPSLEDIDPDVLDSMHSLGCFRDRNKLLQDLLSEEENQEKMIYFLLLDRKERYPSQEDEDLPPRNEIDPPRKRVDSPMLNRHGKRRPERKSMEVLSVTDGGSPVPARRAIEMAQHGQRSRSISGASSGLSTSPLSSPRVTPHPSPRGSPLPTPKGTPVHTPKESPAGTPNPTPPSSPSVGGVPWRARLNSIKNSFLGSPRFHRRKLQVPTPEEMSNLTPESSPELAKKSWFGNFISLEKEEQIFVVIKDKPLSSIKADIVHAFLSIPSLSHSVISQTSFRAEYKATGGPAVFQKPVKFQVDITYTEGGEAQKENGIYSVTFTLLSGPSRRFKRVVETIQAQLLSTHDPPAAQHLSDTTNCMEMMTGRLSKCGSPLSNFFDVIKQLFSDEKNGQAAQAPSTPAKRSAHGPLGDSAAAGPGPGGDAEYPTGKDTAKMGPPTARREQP
T4 sequence (Q8N568 whole entry): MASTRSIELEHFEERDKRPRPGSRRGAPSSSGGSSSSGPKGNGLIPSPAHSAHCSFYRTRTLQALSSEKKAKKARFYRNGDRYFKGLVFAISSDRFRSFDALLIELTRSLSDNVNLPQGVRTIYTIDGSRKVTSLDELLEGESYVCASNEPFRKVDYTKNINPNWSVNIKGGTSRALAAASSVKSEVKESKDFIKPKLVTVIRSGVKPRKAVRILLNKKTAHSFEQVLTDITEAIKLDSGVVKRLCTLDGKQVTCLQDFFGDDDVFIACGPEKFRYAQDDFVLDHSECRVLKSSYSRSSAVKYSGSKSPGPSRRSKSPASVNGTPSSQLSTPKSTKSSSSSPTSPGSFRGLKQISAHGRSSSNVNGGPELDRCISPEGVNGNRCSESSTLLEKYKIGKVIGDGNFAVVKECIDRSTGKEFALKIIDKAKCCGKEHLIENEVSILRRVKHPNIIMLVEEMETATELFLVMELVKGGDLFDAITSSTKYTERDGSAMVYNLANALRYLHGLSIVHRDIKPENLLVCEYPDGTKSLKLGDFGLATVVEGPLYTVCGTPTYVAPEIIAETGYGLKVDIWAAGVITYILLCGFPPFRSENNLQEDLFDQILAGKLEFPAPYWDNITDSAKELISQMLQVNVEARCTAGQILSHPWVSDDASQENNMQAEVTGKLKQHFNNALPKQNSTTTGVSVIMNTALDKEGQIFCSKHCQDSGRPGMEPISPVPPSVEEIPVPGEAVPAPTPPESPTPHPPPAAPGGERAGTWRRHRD
T9 sequence (P11309 whole entry): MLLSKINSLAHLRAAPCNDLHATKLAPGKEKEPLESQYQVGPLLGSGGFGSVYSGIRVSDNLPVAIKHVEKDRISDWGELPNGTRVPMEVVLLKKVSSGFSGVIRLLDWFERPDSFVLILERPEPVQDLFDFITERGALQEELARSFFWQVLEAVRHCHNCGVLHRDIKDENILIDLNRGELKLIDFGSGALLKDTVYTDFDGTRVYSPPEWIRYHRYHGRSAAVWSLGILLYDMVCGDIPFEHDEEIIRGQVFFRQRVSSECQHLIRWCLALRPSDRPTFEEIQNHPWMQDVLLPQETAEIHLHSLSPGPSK
T14 sequence (Q9UHD2 whole entry): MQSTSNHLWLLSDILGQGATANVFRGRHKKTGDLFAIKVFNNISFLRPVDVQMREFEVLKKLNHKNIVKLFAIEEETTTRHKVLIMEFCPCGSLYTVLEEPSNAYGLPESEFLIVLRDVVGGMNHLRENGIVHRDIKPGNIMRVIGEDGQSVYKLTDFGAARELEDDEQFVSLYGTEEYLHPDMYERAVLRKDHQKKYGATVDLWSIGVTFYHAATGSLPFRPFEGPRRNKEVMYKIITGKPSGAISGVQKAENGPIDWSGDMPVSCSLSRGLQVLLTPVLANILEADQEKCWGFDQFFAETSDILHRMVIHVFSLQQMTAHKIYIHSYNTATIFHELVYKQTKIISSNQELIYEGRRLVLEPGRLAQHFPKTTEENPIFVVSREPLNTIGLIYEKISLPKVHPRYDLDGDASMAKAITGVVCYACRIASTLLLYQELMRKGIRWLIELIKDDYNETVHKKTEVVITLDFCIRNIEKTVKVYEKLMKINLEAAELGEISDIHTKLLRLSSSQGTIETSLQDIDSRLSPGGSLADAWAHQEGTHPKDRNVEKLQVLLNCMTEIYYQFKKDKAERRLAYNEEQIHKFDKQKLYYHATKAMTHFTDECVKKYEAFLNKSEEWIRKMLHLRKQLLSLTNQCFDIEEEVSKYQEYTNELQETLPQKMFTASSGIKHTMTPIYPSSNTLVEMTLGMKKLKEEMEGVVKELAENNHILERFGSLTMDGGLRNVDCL
T6 sequence (P22455 22-802): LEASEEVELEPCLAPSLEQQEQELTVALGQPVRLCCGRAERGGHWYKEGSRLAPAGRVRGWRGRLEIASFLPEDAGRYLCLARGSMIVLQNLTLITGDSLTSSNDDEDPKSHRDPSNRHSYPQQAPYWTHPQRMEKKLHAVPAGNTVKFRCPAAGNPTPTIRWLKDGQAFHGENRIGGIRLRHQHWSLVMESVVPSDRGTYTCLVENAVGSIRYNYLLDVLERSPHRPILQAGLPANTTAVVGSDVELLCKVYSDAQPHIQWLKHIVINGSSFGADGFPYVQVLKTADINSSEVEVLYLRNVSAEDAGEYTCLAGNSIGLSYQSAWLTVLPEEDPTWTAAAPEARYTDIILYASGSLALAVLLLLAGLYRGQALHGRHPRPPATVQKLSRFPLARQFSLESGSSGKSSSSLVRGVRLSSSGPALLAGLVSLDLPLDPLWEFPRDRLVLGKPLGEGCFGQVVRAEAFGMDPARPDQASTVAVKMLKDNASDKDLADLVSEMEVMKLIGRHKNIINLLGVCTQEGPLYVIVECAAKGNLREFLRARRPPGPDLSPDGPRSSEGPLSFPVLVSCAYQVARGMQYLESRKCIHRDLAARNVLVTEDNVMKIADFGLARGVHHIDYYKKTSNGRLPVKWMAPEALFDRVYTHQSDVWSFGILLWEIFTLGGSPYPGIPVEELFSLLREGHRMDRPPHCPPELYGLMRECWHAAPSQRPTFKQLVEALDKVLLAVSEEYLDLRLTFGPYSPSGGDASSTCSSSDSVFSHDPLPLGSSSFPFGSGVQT

COc1cc(Nc2ncnc(Nc3cc4c(cn3)NC(=O)C(C)(C)O4)n2)cc(OC)c1OC [MT-SYK-03]
remaining activity at 0.5 µM [1]: 92.5%
remaining activity at 0.5 µM [2]: 95.8%
remaining activity at 0.5 µM [3]: 102%
remaining activity at 0.5 µM [4]: 99.1%
Residual enzymatic activity [5]: 73.9%
remaining activity at 0.5 µM [5]: > 54%
Residual enzymatic activity [6]: 95.7%
remaining activity at 0.5 µM [7]: 5.7%
IC50 [7, 15]: 0.023 µM
remaining activity at 0.5 µM [8]: 77.5%
remaining activity at 0.5 µM [9]: 101%
remaining activity at 0.5 µM [10]: 95.1%
remaining activity at 0.5 µM [11]: 104%
remaining activity at 0.5 µM [12]: 10.1%
IC50 [12, 15]: 0.036 µM and 0.0359 µM
remaining activity at 0.5 µM [13]: 108%
remaining activity at 0.5 µM [14]: 66.8%

COc1cc(Nc2ncc(F)c(Nc3ccc4c(n3)NC(=O)C(C)(C)O4)n2)cc(OC)c1OC [R406, reference compound]
remaining activity at 0.5 µM [1]: 84.2%
remaining activity at 0.5 µM [2]: 63.3%
remaining activity at 0.5 µM [3]: 79.4%
remaining activity at 0.5 µM [4]: 91.8%
remaining activity at 0.5 µM [5]: 24.9%
remaining activity at 0.5 µM ([6]; read-out: Residual enzymatic activity): 58%
remaining activity at 0.5 µM [7]: 6.2%
remaining activity at 0.5 µM [8]: 16.1%
remaining activity at 0.5 µM [9]: 99.2%
remaining activity at 0.5 µM [10]: 87%
remaining activity at 0.5 µM [11]: 56.9%
remaining activity at 0.5 µM [12]: 7.2%
remaining activity at 0.5 µM [13]: 101%
remaining activity at 0.5 µM [14]: 13.9%
